{"source": "patent US7935482B2", "about": "“Gene expression profiling for identification monitoring and treatment of rheumatoid arthritis” (Source Precision Medicine, Inc., priority 2005, dated 2011)", "key": {"[1]": {"tested_on": "Inflammation Gene Expression Panel (inflammation index)", "assay": "Inflammation index from whole-blood Gene Expression Profile of RA patients under therapy", "type": "in vivo, human", "conditions": "for inflammation index compared to normal: clinically stable RA patients, 10 per treatment group, FIGS. 9-11, Remicade: all but one of the patients", "source_text": "The values Ci and P(i) may be determined in a number of ways, so that the index I is informative of the pertinent biological condition. One way is to apply statistical techniques, such as latent class modeling, to the profile data sets to correlate clinical data or experimentally derived data, or other data pertinent to the biological condition. In this connection, for example, may be employed the software from Statistical Innovations, Belmont, Mass., called Latent Gold®. Alternatively, other simpler modeling techniques may be employed in a manner known in the art. The index function for inflammation may be constructed, for example, in a manner that a greater degree of inflammation (as determined by the profile data set for the Inflammation Gene Expression Panel included in Tables 1 and 2) correlates with a large value of the index function. In a simple embodiment, therefore, each P(i) may be +1 or −1, depending on whether the constituent increases or decreases with increasing inflammation. As discussed in further detail below, a meaningful inflammation index that is proportional to the expression, referred to herein as IR-105, was constructed as follows: ¼{IL1A}+¼{IL1B}+¼{TNF}+¼{INFG}[…],\nFIG. 4A further illustrates the consistency of inflammatory gene expression, illustrated here with respect to 7 loci of (of the Inflammation Gene Expression Panel included in Tables 1 and 2), in a set of 44 normal, undiagnosed blood donors. For each individual locus is shown the range of values lying within ±2 standard deviations of the mean expression value, which corresponds to 95% of a normally distributed population. Notwithstanding the great width of the confidence interval (95%), the measured gene expression value (ΔCt)—remarkably—still lies within 10% of the mean, regardless of the expression level involved. As described in further detail below, for a given biological condition an index can be constructed to provide a measurement of the condition. This is possible as a result of the conjunction of two circumstances: (i) there is a remarkable consistency of Gene Expression Profiles with respect to a biological condition across a population and (ii) there can be employed procedures that provide substantially reproducible measurement of constituents in a Gene Expression Panel giving rise to a Gene Expression Profile, under measurement conditions wherein specificity and efficiencies of amplification for all constituents of the panel are substantially similar and which therefore provides a measurement of a biological condition. Accordingly, a function of the expression values of representative constituent loci of FIG. 4A is here used to generate an inflammation index value, which is normalized so that a reading of 1 corresponds to constituent expression values of healthy subjects, as shown in the right-hand portion of FIG. 4A.\nFIG. 4C illustrates the use of the same index as FIG. 4B, where the inflammation median for a normal population of subjects has been set to zero and both normal and diseased subjects are plotted in standard deviation units relative to that median. An inflammation index value was determined for each member of a normal, undiagnosed population of 70 individuals (black bars). The resulting distribution of index values, shown in FIG. 4C, can be seen to approximate closely a normal distribution. Similarly, index values were calculated for individuals from two diseased population groups, (1) rheumatoid arthritis patients treated with methotrexate (MTX) who are about to change therapy to more efficacious drugs (e.g., TNF inhibitors)(hatched bars), and (2) rheumatoid arthritis patients treated with disease modifying anti-rheumatoid drugs (DMARDS) other than MTX, who are about to change therapy to more efficacious drugs (e.g., MTX). […] This figure thus illustrates the utility of an index to derived from Gene Expression Profile data to evaluate disease status and to provide an objective and quantifiable treatment objective. […]"}, "[2]": {"tested_on": "Inflammation Gene Expression Panel", "assay": "Quantitative RT-PCR gene expression in whole blood of treated RA patients relative to normal mean", "type": "in vivo, human", "conditions": "22 patients pooled", "source_text": "For measuring the amount of a particular RNA in a sample, methods known to one of ordinary skill in the art were used to extract and quantify transcribed RNA from a sample with respect to a constituent of a Gene Expression Panel. (See detailed protocols below. Also see PCT application publication number WO 98/24935 herein incorporated by reference for RNA analysis protocols). Briefly, RNA is extracted from a sample such as a tissue, body fluid, or culture medium in which a population of cells of a subject might be growing. For example, cells may be lysed and RNA eluted in a suitable solution in which to conduct a DNAse reaction. First strand synthesis may be performed using a reverse transcriptase. Gene amplification, more specifically quantitative PCR assays, can then be conducted and the gene of interest calibrated against an internal marker such as 18S rRNA (Hirayama et al., Blood 92, 1998: 46-52). Any other endogenous marker can be used, such as 28S-25S rRNA and 5S rRNA. Samples are measured in multiple replicates, for example, 3 replicates. In an embodiment of the invention, quantitative PCR is performed using amplification, reporting agents and instruments such as those supplied commercially by Applied Biosystems (Foster City, Calif.). Given a defined efficiency of amplification of target transcripts, the point (e.g., cycle number) that signal from amplified target template is detectable may be directly related to the amount of specific message transcript in the measured sample. Similarly, other quantifiable signals such as fluorescence, enzyme activity, disintegrations per minute, absorbance, etc., when correlated to a known concentration of target templates (e.g., a reference standard curve) or normalized to a standard with limited variability can be used to quantify the number of target templates in an unknown sample.\nAs part of a larger international study involving patients with rheumatoid arthritis, the subject was followed over a twelve-week period. The subject was enrolled in the study because of a failure to respond to conservative drug therapy for rheumatoid arthritis and a plan to change therapy and begin immediate treatment with a TNF-inhibiting compound. Blood was drawn from the subject prior to initiation of new therapy (visit 1). After initiation of new TNF-inhibiting therapy, blood was drawn at 4 weeks post change in therapy (visit 2), 8 weeks (visit 3), and 12 weeks (visit 4) following the start of new therapy. Blood was collected using the PAXgene Blood RNA System™, held at room temperature for two hours and then frozen at −30° C.\nFrozen samples were shipped to the central laboratory at Source Precision Medicine, the assignee herein, in Boulder, Colo. for determination of expression levels of genes in the 48-gene inflammation gene expression panel included in Tables 1 and 2. The blood samples were thawed and RNA extracted according to the manufacturer's recommended procedure. RNA was converted to cDNA and the level of expression of the 48 inflammatory genes was determined. Expression results are shown for 11 of the 48 loci in FIG. 3. […] Similarly, gene expression levels at each of the subsequent physician visits for each locus are compared to the same normal average value. […] In each visit following the change in the therapy, the level of inflammatory gene expression for 10 of the 11 loci is closer to the cognate locus average previously determined for the normal (i.e., undiagnosed, healthy) patient set. […]"}, "[3]": {"assay": "Clinical assessment of RA patients during therapy (DAS, SJC, TJ, MDAD, HAQ)", "type": "in vivo, human", "conditions": "22 RA patients pooled over both regimens, FIG. 23; for Disease Activity Score (DAS): baseline 6.51"}, "[4]": {"conditions": "human, in vivo; cited from earlier work"}, "[5]": {"conditions": "end of the study, 12 genes examined, FIG. 17"}}}
{"molecule": "CN(Cc1cnc2nc(N)nc(N)c2n1)c1ccc(C(=O)N[C@@H](CCC(=O)O)C(=O)O)cc1", "note": "[methotrexate]", "values": [{"measurement": "distribution of inflammation index values in comparison to the normal distribution", "setting": "[1]; RA patients about to change therapy to more efficacious drugs, FIG. 4C", "value": "skewed upward"}, {"measurement": "inflammation index compared to normal", "setting": "[1]", "value": "elevated compared to normal"}]}
{"molecule": "anakinra [kineret]", "values": [{"measurement": "number of genes still over-expressed to some extent", "setting": "[2]; [5]", "value": 7}, {"measurement": "number of genes transitioned to the under-expressed category", "setting": "[2]; [5]", "value": 4}, {"measurement": "expression of PTGS2 (COX2) versus normal", "setting": "[2]; end of the study, FIG. 17", "value": "not statistically significantly different from normal"}, {"measurement": "values of CD19 expression versus normals", "setting": "[2]; from the start of the study until the end, FIG. 17", "value": "all under-expressed"}, {"measurement": "relative expression of the genes overexpressed at start (11 of 12 genes) versus normals", "setting": "[2]; week 4, normals n=69, FIG. 17", "value": "still over-expressed at week 4 but less so"}, {"measurement": "joint counts, MD assessment and patient self-score over the course of the study", "setting": "[3]", "value": "all went down"}, {"measurement": "Disease Activity Score (DAS)", "setting": "[3]; after 4 weeks", "value": 5.35}, {"measurement": "Disease Activity Score (DAS)", "setting": "[3]; end of the study", "value": 4.88}]}
{"molecule": "etanercept [Enbrel]", "values": [{"measurement": "patients with inflammation index in the normal range", "setting": "[1]; 10 clinically stable RA patients, FIG. 10", "value": 80, "unit": "%"}, {"measurement": "inflammation index compared to normal", "setting": "[1]", "value": "comes much closer to normal"}]}
{"molecule": "infliximab [Remicade]", "values": [{"measurement": "association with serious infections", "setting": "[4]", "value": "associated with serious infections in some subjects"}, {"measurement": "abnormally low inflammation index in two of the patients", "setting": "[1]; 10 clinically stable RA patients, FIG. 11", "value": "suggesting an immunosuppressive response"}, {"measurement": "inflammation index compared to normal", "setting": "[1]", "value": "at or below normal"}]}
